Consider one compound from paper PMC7614388, “Diversification in the inositol tris/tetrakisphosphate kinase (ITPK) family: crystal structure and enzymology of the outlier AtITPK4” (Biochemical Journal, 2023).

The target in one experiment is T1, AtITPK1 (Arabidopsis thaliana, UniProt Q9SBA5).
T1 construct: gene ITPK1; His tag with 3C cleavage implied
T1 sequence (Q9SBA5 1-319): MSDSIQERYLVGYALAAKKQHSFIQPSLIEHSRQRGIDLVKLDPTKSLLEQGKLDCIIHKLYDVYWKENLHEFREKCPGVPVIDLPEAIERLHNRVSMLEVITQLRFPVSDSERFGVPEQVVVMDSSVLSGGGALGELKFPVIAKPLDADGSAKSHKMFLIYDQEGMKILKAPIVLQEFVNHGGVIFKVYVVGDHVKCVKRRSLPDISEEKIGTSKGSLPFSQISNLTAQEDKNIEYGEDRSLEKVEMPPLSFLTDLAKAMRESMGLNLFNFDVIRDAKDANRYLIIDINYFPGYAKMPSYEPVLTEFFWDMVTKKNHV
Description: phosphate release assay. The experiment is classed as biochemical. The following applies: 1 mM ATP; 10 µM enzyme; no inositol phosphate.

In another experiment the target is T2, AtITPK4 (Arabidopsis thaliana, UniProt O80568).
T2 construct: gene ITPK4; full-length; pOPINE, non-cleavable C-terminal 6xHis tag kept; Ni-NTA purified; HAD-like domain 1-150, ATP-grasp kinase domain from 151; no evidence of homo-oligomers
T2 sequence (O80568 whole entry, the tested form may be a part): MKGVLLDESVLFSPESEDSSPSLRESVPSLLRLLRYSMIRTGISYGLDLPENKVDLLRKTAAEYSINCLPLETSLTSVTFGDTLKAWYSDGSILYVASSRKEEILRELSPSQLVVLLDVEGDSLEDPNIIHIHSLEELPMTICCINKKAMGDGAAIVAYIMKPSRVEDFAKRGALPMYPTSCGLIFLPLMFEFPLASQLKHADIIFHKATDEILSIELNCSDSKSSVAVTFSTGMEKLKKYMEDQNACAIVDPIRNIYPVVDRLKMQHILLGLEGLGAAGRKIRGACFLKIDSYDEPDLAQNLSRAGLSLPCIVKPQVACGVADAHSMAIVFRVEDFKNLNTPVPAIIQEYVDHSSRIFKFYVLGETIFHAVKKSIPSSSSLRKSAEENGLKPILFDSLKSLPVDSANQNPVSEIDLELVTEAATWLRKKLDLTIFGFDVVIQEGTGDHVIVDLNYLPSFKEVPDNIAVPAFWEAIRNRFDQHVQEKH
Description: HPLC kinase assay, substrate inhibition fit. In kind it is biochemical. The following applies: 1 mM Ins(1,4,6)P3; ATP 0-5 mM; 6 mM MgCl2; 20 mM HEPES pH 7.3; 25 °C; 3 µM enzyme; substrate inhibition at high ATP.

Regarding `Nc1ncnc2c1ncn2[C@@H]1O[C@H](COP(=O)(O)OP(=O)(O)OP(=O)(O)O)[C@@H](O)[C@H]1O` [ATP], the phosphate release assay entry at AtITPK1 is “AtITPK1 showed much greater phosphate release from ATP in the absence of inositol phosphate substrate”. The same compound returned a Ki at AtITPK4 of 3.3 mM.
